This note sets out measurements from the Kinase Knowledgebase extract (Sharma et al. 2016).

For test [1], the target named is PIK3CD (Human) (UniProt O00329). Description: Enzyme Assay.
Test [2] concerns the target PIK3CG (human) (UniProt P48736). Briefly: Assessment of PIK3CG Kinase Activity.
Test [3] addresses PIK3CA (human) (UniProt P42336). Description: Assessment of PIK3CA Kinase Activity.
Test [4] has as its target PIK3CD (Human) (UniProt O00329). Description: Cell-Based Assay. The conditions noted are these: u937.

Structures are written as SMILES.

Chain of PIK3CG (human) (P48736 whole entry, looked up): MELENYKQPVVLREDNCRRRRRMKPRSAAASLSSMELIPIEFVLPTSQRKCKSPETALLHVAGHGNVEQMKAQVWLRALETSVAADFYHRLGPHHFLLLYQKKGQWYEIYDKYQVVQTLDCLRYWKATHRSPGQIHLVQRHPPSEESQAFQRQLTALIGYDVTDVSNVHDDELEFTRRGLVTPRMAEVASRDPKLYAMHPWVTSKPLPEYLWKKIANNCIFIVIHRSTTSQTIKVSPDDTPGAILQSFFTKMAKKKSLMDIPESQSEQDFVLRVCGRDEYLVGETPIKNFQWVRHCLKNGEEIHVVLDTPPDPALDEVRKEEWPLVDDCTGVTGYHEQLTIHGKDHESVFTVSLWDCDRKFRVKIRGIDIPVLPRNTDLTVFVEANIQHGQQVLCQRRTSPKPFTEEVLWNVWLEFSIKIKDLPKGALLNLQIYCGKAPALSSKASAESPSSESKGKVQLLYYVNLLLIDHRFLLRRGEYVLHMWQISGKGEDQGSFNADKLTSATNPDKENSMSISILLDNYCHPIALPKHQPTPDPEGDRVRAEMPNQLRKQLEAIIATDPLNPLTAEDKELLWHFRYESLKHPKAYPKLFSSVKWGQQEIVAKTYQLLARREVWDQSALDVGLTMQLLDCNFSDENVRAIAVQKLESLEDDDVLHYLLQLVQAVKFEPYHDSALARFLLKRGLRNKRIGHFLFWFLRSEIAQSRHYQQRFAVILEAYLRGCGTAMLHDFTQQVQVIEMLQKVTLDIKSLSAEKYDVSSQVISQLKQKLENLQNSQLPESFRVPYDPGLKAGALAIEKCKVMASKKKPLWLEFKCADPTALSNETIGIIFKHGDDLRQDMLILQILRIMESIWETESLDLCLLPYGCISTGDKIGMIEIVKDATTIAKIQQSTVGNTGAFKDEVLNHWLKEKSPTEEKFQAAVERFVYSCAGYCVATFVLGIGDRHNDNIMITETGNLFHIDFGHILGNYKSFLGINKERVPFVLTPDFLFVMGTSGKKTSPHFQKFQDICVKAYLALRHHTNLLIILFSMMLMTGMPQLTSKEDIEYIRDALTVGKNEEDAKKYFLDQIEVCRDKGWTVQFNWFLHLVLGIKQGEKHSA
Chain of PIK3CD (Human) (O00329 whole entry, looked up): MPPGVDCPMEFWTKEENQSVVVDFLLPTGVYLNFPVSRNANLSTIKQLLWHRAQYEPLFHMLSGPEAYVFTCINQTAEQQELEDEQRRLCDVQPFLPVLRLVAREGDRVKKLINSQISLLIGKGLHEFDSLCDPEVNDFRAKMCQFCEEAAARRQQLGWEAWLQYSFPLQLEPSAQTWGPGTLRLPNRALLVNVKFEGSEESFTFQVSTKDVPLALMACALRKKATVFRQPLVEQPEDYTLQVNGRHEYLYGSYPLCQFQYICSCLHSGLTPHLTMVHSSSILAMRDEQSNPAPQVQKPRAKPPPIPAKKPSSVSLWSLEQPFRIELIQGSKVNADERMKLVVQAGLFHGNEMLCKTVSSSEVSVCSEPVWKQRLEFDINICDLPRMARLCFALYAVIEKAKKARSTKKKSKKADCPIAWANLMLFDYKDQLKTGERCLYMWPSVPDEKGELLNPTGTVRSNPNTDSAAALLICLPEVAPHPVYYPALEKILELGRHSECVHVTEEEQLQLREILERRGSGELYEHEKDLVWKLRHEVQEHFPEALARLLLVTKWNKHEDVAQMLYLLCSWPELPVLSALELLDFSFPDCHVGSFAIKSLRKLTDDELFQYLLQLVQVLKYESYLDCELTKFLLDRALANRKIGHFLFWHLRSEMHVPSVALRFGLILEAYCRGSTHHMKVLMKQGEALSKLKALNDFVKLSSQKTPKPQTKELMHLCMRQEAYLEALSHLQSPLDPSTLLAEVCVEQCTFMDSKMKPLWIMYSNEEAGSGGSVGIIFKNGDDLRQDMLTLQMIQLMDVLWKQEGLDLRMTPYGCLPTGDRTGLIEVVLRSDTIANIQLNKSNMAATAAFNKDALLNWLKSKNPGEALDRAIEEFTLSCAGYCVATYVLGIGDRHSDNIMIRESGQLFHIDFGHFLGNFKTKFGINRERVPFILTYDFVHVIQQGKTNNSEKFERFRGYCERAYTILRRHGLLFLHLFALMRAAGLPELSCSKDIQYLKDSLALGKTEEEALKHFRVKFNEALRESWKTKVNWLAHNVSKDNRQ
Chain of PIK3CA (human) (P42336 whole entry, looked up): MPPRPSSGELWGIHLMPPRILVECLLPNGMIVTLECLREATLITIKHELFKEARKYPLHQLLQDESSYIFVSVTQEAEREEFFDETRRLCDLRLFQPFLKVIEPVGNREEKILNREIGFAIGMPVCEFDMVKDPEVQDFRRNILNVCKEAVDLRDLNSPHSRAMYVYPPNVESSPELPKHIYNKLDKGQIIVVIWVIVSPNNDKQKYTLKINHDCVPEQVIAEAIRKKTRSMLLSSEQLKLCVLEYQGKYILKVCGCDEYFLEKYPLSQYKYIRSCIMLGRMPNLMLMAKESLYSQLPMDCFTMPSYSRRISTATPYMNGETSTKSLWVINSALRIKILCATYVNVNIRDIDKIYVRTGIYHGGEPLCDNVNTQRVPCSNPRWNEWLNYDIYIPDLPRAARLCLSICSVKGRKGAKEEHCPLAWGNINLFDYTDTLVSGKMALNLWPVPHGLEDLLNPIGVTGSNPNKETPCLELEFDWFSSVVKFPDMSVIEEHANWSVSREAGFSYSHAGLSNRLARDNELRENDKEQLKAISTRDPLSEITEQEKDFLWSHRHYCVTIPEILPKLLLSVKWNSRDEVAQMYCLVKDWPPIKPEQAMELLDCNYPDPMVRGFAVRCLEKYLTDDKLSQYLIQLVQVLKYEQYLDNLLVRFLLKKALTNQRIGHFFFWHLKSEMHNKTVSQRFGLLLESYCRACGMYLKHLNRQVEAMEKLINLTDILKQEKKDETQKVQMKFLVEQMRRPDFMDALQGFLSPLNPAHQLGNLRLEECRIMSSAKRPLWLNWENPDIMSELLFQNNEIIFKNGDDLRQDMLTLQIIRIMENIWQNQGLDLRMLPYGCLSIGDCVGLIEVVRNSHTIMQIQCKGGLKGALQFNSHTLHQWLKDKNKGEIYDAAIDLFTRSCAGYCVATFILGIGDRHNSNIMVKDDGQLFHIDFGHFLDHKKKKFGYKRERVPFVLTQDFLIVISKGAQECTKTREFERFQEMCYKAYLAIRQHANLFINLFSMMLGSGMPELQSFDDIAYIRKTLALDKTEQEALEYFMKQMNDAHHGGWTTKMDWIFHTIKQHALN

The term IC50 denotes the point on the concentration scale where inhibition reaches its midpoint. Regarding `C#Cc1cccc2nc(Cn3nc(-c4ccc(O)cc4)c4c(N)ncnc43)n(Cc3cccc(C#N)c3)c(=O)c12`, the IC50 is under 0.05 µM in test [1], 0.05 to 1 µM in test [2], 0.05 to 1 µM in test [3] and under 0.01 µM in test [4].

In the case of `Nc1ncnc2c1c(-c1ccc(O)cc1)nn2Cc1nc2cccc(C#CCCCC(=O)NC3CCNC3)c2c(=O)n1Cc1ccccc1Cl` (stereo not given), the IC50 was under 0.05 µM in test [1], under 0.05 µM in test [2], 1.49 µM in test [3] and under 0.01 µM in test [4].

As to `COCCOCC#Cc1cccc2nc(Cn3nc(-c4cccc(O)c4)c4c(N)ncnc43)n(Cc3ccccc3Cl)c(=O)c12`, the IC50 is under 0.05 µM in test [1], 0.05 to 1 µM in test [2], 0.05 to 1 µM in test [3] and under 0.01 µM in test [4].

With `CC(=O)NCC(=O)NCC#Cc1cccc2nc(Cn3nc(-c4cccc(O)c4)c4c(N)ncnc43)n(Cc3ccccc3Cl)c(=O)c12`, the IC50 in test [1] was under 0.05 µM; in test [2], under 0.05 µM; in test [3], 0.05 to 1 µM; in test [4] it was under 0.01 µM.

Consider `COCCOCCOCC#Cc1cccc2nc(Cn3nc(-c4cccc(O)c4)c4c(N)ncnc43)n(Cc3ccccc3Cl)c(=O)c12`, for which the IC50 in test [1] is under 0.05 µM; in test [2], 0.05 to 1 µM; in test [4], under 0.01 µM.

For the molecule `C#Cc1cccc2nc(Cn3nc(-c4cccc(O)c4)c4c(N)ncnc43)n(Cc3cccc(C#N)c3)c(=O)c12`, the IC50 in test [4] was under 0.01 µM.

Regarding `Cc1cnc(Cn2c(Cn3nc(-c4cccc(O)c4)c4c(N)ncnc43)nc3cccc(C#CCCCC(=O)N4CCOCC4)c3c2=O)cn1`, the IC50 was under 0.05 µM in test [1], under 0.05 µM in test [2], 0.05 to 1 µM in test [3] and under 0.01 µM in test [4].

As for `CN1CCN(CCNC(=O)CCCC#Cc2cccc3nc(Cn4nc(-c5ccc(O)cc5)c5c(N)ncnc54)n(Cc4ccccc4Cl)c(=O)c23)CC1`, the IC50 in test [4] is under 0.01 µM.

In test [4], `C#Cc1cccc2nc(Cn3nc(-c4cccc(O)c4)c4c(N)ncnc43)n(Cc3cccc(C(F)(F)F)c3)c(=O)c12` showed an IC50 of under 0.01 µM.

In turn, `CN1CCCN(C(=O)CCCC#Cc2cccc3nc(Cn4nc(-c5ccc(O)cc5)c5c(N)ncnc54)n(Cc4ccccc4Cl)c(=O)c23)CC1` displayed an IC50 in test [4] of under 0.01 µM.

Regarding `C#Cc1cccc2nc(Cn3nc(-c4ccc(O)cc4)c4c(N)ncnc43)n(Cc3cccc(Cl)c3F)c(=O)c12`, the IC50 in test [4] is under 0.01 µM.

`Nc1ncnc2c1c(-c1ccc(O)cc1)nn2Cc1nc2cccc(C#CCCCNC3CCCC3)c2c(=O)n1Cc1ccccc1Cl`: the IC50 in test [4] is under 0.01 µM.

In the case of `CC(C)NC(=O)CCCC#Cc1cccc2nc(Cn3nc(-c4cccc(O)c4)c4c(N)ncnc43)n(Cc3ccccc3Cl)c(=O)c12`, in test [4], the IC50 is under 0.01 µM.

In test [4], `COCCN(CCCC#Cc1cccc2nc(Cn3nc(-c4ccc(O)cc4)c4c(N)ncnc43)n(Cc3ccccc3Cl)c(=O)c12)CCOC` had a half-inhibitory concentration (IC50) of under 0.01 µM.

`C#Cc1cccc2nc(Cn3nc(-c4ccc(O)cc4)c4c(N)ncnc43)n(Cc3cccc(C(F)(F)F)c3)c(=O)c12`: in test [4], the IC50 is under 0.01 µM.

`Cn1cc(Cn2c(Cn3nc(-c4cccc(O)c4)c4c(N)ncnc43)nc3cccc(C#CCCCC(=O)N4CCOCC4)c3c2=O)cn1` registered an IC50 in test [4] of under 0.01 µM.

`C#Cc1cccc2nc(Cn3nc(-c4cccc(O)c4)c4c(N)ncnc43)n(Cc3ccc(Cl)cc3)c(=O)c12` had an IC50 in test [4] of under 0.01 µM.

`C#Cc1cccc2nc(Cn3nc(-c4ccc(F)c(O)c4)c4c(N)ncnc43)n(Cc3ccccc3Cl)c(=O)c12` returned an IC50 in test [4] of under 0.01 µM.
